Laboratory results from the kinase profiling compilation of Christmann-Franck et al. (2016).

Tests used:
Test in all cases: KINOMEscan competition binding
AKT2 (human) = AKT2 (human) (UniProt P31751); settings: compound 1.0 µM
AURKA (human) = AURKA (human) (UniProt O14965); settings: compound 1.0 µM
CDKL1 (human) = CDKL1 (human) (UniProt Q00532); settings: compound 1.0 µM
CSNK1E (human) = CSNK1E (human) (UniProt P49674); settings: compound 1.0 µM
DSTYK (human) = DSTYK (human) (UniProt Q6XUX3); settings: compound 1.0 µM
[1] = test system: EGFR (human), P00533 [746-750 del]; settings: compound 1.0 µM
EIF2AK2 (human) = EIF2AK2 (human) (UniProt P19525); settings: compound 1.0 µM
Chain of EIF2AK2 (human) (P19525 whole entry, looked up): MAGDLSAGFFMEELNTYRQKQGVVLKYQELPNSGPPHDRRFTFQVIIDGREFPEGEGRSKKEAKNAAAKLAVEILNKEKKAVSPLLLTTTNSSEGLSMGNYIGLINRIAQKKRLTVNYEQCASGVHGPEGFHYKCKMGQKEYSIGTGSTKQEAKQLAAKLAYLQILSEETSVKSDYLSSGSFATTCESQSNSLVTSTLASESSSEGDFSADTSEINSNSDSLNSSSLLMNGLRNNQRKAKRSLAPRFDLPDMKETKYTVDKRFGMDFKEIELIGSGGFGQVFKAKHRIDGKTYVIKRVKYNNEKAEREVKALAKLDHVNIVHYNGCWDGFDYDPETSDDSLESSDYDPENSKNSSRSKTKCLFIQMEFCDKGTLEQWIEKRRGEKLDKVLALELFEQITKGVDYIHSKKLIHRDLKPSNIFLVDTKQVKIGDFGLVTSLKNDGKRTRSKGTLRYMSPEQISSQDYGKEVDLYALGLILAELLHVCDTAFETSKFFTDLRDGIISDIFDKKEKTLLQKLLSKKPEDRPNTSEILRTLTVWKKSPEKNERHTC

EPHA6 (human) = EPHA6 (human) (UniProt Q9UF33); settings: compound 1.0 µM
ERBB2 (human) = ERBB2 (human) (UniProt P04626); settings: for kinase still bound, per cent of control: compound 1.0 µM
Chain of ERBB2 (human) (P04626 whole entry, looked up): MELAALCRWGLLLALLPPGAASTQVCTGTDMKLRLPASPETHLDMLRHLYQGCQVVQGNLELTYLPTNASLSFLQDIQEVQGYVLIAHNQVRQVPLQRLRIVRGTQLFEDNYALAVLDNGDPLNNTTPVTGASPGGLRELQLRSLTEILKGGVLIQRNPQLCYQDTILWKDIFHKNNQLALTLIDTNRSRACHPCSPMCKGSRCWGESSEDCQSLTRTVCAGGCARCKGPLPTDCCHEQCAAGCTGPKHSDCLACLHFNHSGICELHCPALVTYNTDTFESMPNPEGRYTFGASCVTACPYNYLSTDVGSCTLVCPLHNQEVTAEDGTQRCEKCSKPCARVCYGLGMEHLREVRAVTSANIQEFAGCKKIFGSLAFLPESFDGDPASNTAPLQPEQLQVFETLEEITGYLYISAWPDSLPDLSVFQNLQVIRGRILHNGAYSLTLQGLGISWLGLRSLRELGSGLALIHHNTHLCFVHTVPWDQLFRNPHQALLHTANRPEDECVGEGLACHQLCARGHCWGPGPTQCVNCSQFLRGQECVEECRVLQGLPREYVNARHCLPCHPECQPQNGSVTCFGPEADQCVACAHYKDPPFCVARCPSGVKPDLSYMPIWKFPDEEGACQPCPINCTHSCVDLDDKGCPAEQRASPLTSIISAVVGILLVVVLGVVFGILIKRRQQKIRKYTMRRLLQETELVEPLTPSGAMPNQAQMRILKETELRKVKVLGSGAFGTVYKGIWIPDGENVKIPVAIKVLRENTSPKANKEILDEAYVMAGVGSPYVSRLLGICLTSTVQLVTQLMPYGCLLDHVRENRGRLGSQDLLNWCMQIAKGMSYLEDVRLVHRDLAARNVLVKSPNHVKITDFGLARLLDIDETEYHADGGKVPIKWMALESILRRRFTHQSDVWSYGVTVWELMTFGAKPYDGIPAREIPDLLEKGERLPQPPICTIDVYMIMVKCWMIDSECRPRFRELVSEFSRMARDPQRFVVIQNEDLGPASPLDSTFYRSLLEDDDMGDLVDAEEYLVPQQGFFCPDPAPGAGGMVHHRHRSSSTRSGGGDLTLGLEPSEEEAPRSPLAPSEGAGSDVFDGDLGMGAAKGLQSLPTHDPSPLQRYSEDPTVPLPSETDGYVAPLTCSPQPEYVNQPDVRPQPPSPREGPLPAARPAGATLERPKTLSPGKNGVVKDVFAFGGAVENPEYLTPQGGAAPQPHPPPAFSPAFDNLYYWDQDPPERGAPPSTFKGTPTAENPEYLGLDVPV

FGFR2 (human) = FGFR2 (human) (UniProt P21802); settings: compound 1.0 µM
[2] = test system: FGFR3 (human), P22607 [G697C]; settings: compound 1.0 µM
[3] = test system: FLT3 (human), P36888 [R834Q]; settings: compound 1.0 µM
FYN (human) = FYN (human) (UniProt P06241); settings: compound 1.0 µM
HIPK1 (human) = HIPK1 (human) (UniProt Q86Z02); settings: compound 1.0 µM
Chain of HIPK1 (human) (Q86Z02 whole entry, looked up): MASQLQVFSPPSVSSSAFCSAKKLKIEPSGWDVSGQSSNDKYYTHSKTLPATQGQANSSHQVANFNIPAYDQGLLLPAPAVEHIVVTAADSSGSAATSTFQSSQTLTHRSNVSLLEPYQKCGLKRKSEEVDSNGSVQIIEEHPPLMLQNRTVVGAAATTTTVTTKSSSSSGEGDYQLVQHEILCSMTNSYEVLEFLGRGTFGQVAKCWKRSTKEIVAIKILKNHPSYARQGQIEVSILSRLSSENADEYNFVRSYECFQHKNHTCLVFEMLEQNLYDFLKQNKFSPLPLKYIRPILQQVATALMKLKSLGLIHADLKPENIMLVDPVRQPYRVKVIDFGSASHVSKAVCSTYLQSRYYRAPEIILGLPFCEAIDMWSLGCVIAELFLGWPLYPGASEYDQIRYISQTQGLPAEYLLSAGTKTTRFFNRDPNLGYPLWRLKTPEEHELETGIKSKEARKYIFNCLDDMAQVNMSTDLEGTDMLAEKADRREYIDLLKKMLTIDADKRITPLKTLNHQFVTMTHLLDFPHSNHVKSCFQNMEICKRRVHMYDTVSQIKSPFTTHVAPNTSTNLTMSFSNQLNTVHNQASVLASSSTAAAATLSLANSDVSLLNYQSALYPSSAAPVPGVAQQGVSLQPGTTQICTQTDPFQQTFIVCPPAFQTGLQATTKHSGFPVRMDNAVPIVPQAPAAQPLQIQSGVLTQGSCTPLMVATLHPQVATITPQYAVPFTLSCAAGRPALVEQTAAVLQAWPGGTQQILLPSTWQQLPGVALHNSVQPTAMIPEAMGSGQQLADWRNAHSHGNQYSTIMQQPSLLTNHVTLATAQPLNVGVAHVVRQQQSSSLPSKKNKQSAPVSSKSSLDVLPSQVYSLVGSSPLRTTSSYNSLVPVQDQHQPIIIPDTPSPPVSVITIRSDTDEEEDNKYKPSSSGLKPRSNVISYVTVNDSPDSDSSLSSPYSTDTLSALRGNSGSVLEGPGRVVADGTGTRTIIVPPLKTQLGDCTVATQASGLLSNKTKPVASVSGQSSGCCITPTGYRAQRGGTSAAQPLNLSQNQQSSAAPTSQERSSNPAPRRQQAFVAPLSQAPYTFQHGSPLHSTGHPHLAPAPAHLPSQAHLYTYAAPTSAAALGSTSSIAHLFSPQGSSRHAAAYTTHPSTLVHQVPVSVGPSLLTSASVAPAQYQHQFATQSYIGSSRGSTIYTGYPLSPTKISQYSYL

HIPK2 (human) = HIPK2 (human) (UniProt Q9H2X6); settings: compound 1.0 µM
IRAK4 (human) = IRAK4 (human) (UniProt Q9NWZ3); settings: compound 1.0 µM
[4] = test system: KIT (human), P10721 [D816V]; settings: compound 1.0 µM
MAP2K6 (human) = MAP2K6 (human) (UniProt P52564); settings: compound 1.0 µM
MAPK1 (human) = MAPK1 (human) (UniProt P28482); settings: compound 1.0 µM
MINK1 (human) = MINK1 (human) (UniProt Q8N4C8); settings: compound 1.0 µM
MKNK2 (human) = MKNK2 (human) (UniProt Q9HBH9); settings: compound 1.0 µM
Chain of MKNK2 (human) (Q9HBH9 whole entry, looked up): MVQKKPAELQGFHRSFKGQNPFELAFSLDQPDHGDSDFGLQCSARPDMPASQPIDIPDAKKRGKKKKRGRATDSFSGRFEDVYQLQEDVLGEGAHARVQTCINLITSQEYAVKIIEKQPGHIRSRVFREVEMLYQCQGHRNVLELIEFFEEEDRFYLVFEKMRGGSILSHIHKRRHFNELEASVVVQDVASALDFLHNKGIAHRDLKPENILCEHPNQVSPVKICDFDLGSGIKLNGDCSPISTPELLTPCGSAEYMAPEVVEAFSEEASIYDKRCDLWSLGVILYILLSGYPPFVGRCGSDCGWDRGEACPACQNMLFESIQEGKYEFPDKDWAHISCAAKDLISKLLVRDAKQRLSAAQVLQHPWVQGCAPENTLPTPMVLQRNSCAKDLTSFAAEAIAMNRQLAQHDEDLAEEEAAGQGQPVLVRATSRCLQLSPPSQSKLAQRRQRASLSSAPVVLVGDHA

NEK2 (human) = NEK2 (human) (UniProt P51955); settings: compound 1.0 µM
NEK3 (human) = NEK3 (human) (UniProt P51956); settings: compound 1.0 µM
PIK3CA (human) = PIK3CA (human) (UniProt P42336); settings: compound 1.0 µM
[5] = test system: PIK3CA (human), P42336 [E545A]; settings: compound 1.0 µM
PIK3CB (human) = PIK3CB (human) (UniProt P42338); settings: compound 1.0 µM
PIM1 (human) = PIM1 (human) (UniProt P11309); settings: compound 1.0 µM
PIM3 (human) = PIM3 (human) (UniProt Q86V86); settings: compound 1.0 µM
PIP4K2C (human) = PIP4K2C (human) (UniProt Q8TBX8); settings: compound 1.0 µM
Chain of PIP4K2C (human) (Q8TBX8 whole entry, looked up): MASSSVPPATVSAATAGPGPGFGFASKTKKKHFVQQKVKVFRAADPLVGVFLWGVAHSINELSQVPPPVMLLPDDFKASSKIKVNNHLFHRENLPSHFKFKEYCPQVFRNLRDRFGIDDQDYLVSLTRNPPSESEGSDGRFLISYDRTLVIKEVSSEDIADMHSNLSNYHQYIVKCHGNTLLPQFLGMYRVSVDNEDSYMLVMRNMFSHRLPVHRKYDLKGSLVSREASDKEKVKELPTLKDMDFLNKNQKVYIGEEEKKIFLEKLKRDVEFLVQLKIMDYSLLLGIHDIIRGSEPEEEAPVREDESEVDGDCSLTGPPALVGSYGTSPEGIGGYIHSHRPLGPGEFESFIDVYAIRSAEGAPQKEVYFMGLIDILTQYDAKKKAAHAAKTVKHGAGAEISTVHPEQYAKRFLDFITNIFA

PIP5K1C (human) = PIP5K1C (human) (UniProt O60331); settings: compound 1.0 µM
RPS6KA6 KD2 (human) = RPS6KA6 KD2 (human) (UniProt Q9UK32); settings: compound 1.0 µM
Chain of RPS6KA6 KD2 (human) (Q9UK32 whole entry, looked up): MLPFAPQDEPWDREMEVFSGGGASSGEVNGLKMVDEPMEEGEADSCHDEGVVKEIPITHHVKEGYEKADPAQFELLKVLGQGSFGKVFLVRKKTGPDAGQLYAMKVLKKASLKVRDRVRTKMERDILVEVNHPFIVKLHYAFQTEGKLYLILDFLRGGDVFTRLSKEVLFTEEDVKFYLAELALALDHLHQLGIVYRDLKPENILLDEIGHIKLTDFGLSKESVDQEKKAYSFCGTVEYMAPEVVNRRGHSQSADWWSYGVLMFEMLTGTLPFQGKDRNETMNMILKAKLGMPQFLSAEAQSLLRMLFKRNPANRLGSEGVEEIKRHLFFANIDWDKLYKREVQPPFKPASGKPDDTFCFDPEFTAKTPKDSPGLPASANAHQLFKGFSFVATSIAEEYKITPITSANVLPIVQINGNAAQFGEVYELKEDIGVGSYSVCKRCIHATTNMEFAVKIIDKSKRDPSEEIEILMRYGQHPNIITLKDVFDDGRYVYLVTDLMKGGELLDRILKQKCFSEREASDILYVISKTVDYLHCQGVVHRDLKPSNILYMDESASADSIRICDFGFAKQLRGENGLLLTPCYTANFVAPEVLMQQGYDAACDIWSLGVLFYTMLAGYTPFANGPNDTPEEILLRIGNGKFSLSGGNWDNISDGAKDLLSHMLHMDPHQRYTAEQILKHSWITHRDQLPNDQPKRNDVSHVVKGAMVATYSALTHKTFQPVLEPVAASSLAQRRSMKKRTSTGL

SGK110 (human) = SGK110 (human) (UniProt P0C264); settings: compound 1.0 µM
STK10 (human) = STK10 (human) (UniProt O94804); settings: compound 1.0 µM
STK16 (human) = STK16 (human) (UniProt O75716); settings: compound 1.0 µM
STK32A (human) = STK32A (human) (UniProt Q8WU08); settings: compound 1.0 µM
STK32B (human) = STK32B (human) (UniProt Q9NY57); settings: compound 1.0 µM
STK35 (human) = STK35 (human) (UniProt Q8TDR2); settings: compound 1.0 µM
STK39 (human) = STK39 (human) (UniProt Q9UEW8); settings: compound 1.0 µM
TIE1 (human) = TIE1 (human) (UniProt P35590); settings: compound 1.0 µM
TNNI3K (human) = TNNI3K (human) (UniProt Q59H18); settings: compound 1.0 µM
ULK2 (human) = ULK2 (human) (UniProt Q8IYT8); settings: compound 1.0 µM
ULK3 (human) = ULK3 (human) (UniProt Q6PHR2); settings: compound 1.0 µM
ZAP70 (human) = ZAP70 (human) (UniProt P43403); settings: compound 1.0 µM

Chain of CDKL1 (human) (Q00532 whole entry, looked up): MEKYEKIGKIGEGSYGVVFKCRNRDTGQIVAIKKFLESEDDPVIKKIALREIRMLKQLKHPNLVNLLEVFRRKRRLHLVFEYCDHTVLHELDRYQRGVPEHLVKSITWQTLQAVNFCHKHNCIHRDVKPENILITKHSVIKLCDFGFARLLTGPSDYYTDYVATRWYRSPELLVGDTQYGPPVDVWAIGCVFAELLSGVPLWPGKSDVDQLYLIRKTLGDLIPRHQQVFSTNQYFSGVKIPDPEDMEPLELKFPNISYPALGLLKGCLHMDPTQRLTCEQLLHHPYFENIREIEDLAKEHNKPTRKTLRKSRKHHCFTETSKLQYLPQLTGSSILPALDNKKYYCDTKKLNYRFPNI

Q: Which kinase still bound, per cent of control (AKT2 (human)) does the source give for CN(C)C/C=C/C(=O)Nc1cccc(C(=O)Nc2ccc(Nc3nccc(-c4c(-c5ccccc5)nn5ccccc45)n3)cc2)c1 here?
A: 100%

Q: What about the kinase still bound, per cent of control (AURKA (human)) of the same compound?
A: 28%

Q: What about the kinase still bound, per cent of control (CDKL1 (human)) of the same compound?
A: 100%

Q: And the kinase still bound, per cent of control (CSNK1E (human))?
A: 0%

Q: And the kinase still bound, per cent of control (DSTYK (human))?
A: 80%

Q: And the kinase still bound, per cent of control [1]?
A: 0%

Q: What about the kinase still bound, per cent of control (EIF2AK2 (human)) of the same compound?
A: 92%

Q: What about the kinase still bound, per cent of control (EPHA6 (human)) of the same compound?
A: 32%

Q: And the Kd (ERBB2 (human))?
A: 230 nM

Q: What about the kinase still bound, per cent of control (ERBB2 (human)) of the same compound?
A: 0.4%

Q: And the kinase still bound, per cent of control (FGFR2 (human))?
A: 49%

Q: And the kinase still bound, per cent of control [2]?
A: 93%

Q: What about the kinase still bound, per cent of control [3] of the same compound?
A: 68%

Q: What about the kinase still bound, per cent of control (FYN (human)) of the same compound?
A: 49%

Q: What about the kinase still bound, per cent of control (HIPK1 (human)) of the same compound?
A: 100%

Q: And the kinase still bound, per cent of control (HIPK2 (human))?
A: 97%

Q: What about the kinase still bound, per cent of control (IRAK4 (human)) of the same compound?
A: 84%

Q: And the kinase still bound, per cent of control [4]?
A: 33%

Q: And the kinase still bound, per cent of control (MAP2K6 (human))?
A: 56%

Q: And the kinase still bound, per cent of control (MAPK1 (human))?
A: 100%

Q: And the kinase still bound, per cent of control (MINK1 (human))?
A: 46%

Q: What about the kinase still bound, per cent of control (MKNK2 (human)) of the same compound?
A: 100%

Q: And the kinase still bound, per cent of control (NEK2 (human))?
A: 93%

Q: And the kinase still bound, per cent of control (NEK3 (human))?
A: 99%

Q: What about the kinase still bound, per cent of control (PIK3CA (human)) of the same compound?
A: 99%

Q: And the kinase still bound, per cent of control [5]?
A: 100%

Q: What about the kinase still bound, per cent of control (PIK3CB (human)) of the same compound?
A: 100%

Q: And the kinase still bound, per cent of control (PIM1 (human))?
A: 84%

Q: And the kinase still bound, per cent of control (PIM3 (human))?
A: 94%

Q: And the kinase still bound, per cent of control (PIP4K2C (human))?
A: 86%

Q: And the kinase still bound, per cent of control (PIP5K1C (human))?
A: 87%

Q: What about the kinase still bound, per cent of control (RPS6KA6 KD2 (human)) of the same compound?
A: 13%

Q: What about the kinase still bound, per cent of control (SGK110 (human)) of the same compound?
A: 100%

Q: What about the kinase still bound, per cent of control (STK10 (human)) of the same compound?
A: 23%

Q: What about the kinase still bound, per cent of control (STK16 (human)) of the same compound?
A: 37%

Q: And the kinase still bound, per cent of control (STK32A (human))?
A: 35%

Q: And the kinase still bound, per cent of control (STK32B (human))?
A: 30%

Q: What about the kinase still bound, per cent of control (STK35 (human)) of the same compound?
A: 94%

Q: What about the kinase still bound, per cent of control (STK39 (human)) of the same compound?
A: 82%

Q: And the kinase still bound, per cent of control (TIE1 (human))?
A: 23%

Q: And the kinase still bound, per cent of control (TNNI3K (human))?
A: 100%

Q: And the kinase still bound, per cent of control (ULK2 (human))?
A: 100%

Q: What about the kinase still bound, per cent of control (ULK3 (human)) of the same compound?
A: 84%

Q: What about the kinase still bound, per cent of control (ZAP70 (human)) of the same compound?
A: 96%

Q: For Cc1cc(NC(=O)c2cccc(NC(=O)/C=C/CN(C)C)c2)ccc1Nc1nccc(-c2cccnc2)n1, which kinase still bound, per cent of control (AKT2 (human)) is on record?
A: 100%

Q: And the kinase still bound, per cent of control (AURKA (human))?
A: 100%

Q: And the kinase still bound, per cent of control (CDKL1 (human))?
A: 88%

Q: What about the kinase still bound, per cent of control (CSNK1E (human)) of the same compound?
A: 70%

Q: And the kinase still bound, per cent of control (DSTYK (human))?
A: 100%

Q: And the kinase still bound, per cent of control [1]?
A: 90%

Q: What about the kinase still bound, per cent of control (EIF2AK2 (human)) of the same compound?
A: 82%

Q: What about the kinase still bound, per cent of control (EPHA6 (human)) of the same compound?
A: 100%

Q: What about the kinase still bound, per cent of control (ERBB2 (human)) of the same compound?
A: 82%

Q: What about the kinase still bound, per cent of control (FGFR2 (human)) of the same compound?
A: 79%

Q: And the kinase still bound, per cent of control [2]?
A: 100%

Q: And the kinase still bound, per cent of control [3]?
A: 100%

Q: And the kinase still bound, per cent of control (FYN (human))?
A: 78%

Q: And the kinase still bound, per cent of control (HIPK1 (human))?
A: 100%

Q: What about the kinase still bound, per cent of control (HIPK2 (human)) of the same compound?
A: 71%

Q: What about the kinase still bound, per cent of control (IRAK4 (human)) of the same compound?
A: 93%

Q: What about the kinase still bound, per cent of control [4] of the same compound?
A: 54%

Q: What about the kinase still bound, per cent of control (MAP2K6 (human)) of the same compound?
A: 95%

Q: And the kinase still bound, per cent of control (MAPK1 (human))?
A: 99%

Q: What about the kinase still bound, per cent of control (MINK1 (human)) of the same compound?
A: 71%

Q: And the kinase still bound, per cent of control (MKNK2 (human))?
A: 6.8%

Q: What about the kinase still bound, per cent of control (NEK2 (human)) of the same compound?
A: 100%

Q: And the kinase still bound, per cent of control (NEK3 (human))?
A: 73%

Q: And the kinase still bound, per cent of control (PIK3CA (human))?
A: 100%

Q: And the kinase still bound, per cent of control [5]?
A: 95%

Q: And the kinase still bound, per cent of control (PIK3CB (human))?
A: 79%

Q: What about the kinase still bound, per cent of control (PIM1 (human)) of the same compound?
A: 100%

Q: And the kinase still bound, per cent of control (PIM3 (human))?
A: 56%

Q: And the kinase still bound, per cent of control (PIP4K2C (human))?
A: 46%

Q: What about the kinase still bound, per cent of control (PIP5K1C (human)) of the same compound?
A: 93%

Q: What about the kinase still bound, per cent of control (RPS6KA6 KD2 (human)) of the same compound?
A: 76%

Q: And the kinase still bound, per cent of control (SGK110 (human))?
A: 95%

Q: And the kinase still bound, per cent of control (STK10 (human))?
A: 100%

Q: What about the kinase still bound, per cent of control (STK16 (human)) of the same compound?
A: 61%

Q: And the kinase still bound, per cent of control (STK32A (human))?
A: 78%

Q: What about the kinase still bound, per cent of control (STK32B (human)) of the same compound?
A: 90%

Q: What about the kinase still bound, per cent of control (STK35 (human)) of the same compound?
A: 68%

Q: What about the kinase still bound, per cent of control (STK39 (human)) of the same compound?
A: 95%

Q: What about the kinase still bound, per cent of control (TIE1 (human)) of the same compound?
A: 91%

Q: And the kinase still bound, per cent of control (TNNI3K (human))?
A: 100%

Q: What about the kinase still bound, per cent of control (ULK2 (human)) of the same compound?
A: 96%

Q: What about the kinase still bound, per cent of control (ULK3 (human)) of the same compound?
A: 40%

Q: What about the kinase still bound, per cent of control (ZAP70 (human)) of the same compound?
A: 79%
